Legend:
[1] = tested on: laser-induced choroidal neovascularization; experiment: Laser-induced choroidal neovascularization (CNV) mouse model, intravenous L-ABH; assay type: in vivo, C57/B6 mice; details: i.v. 6 mg/kg the day before laser and 3 mg/kg third day after laser; analysed day 7 after laser; p=0.001
Description: (§1) Using animal models of exAMD, in C57/B6 mice, fundus was irradiated with Krypton red laser (interval at 0.05 s, duration of 0.07 s, and power at 240 mW) to make CNV mice models. A serine racemase competitive inhibitor, L-aspartic acid β-hydroxamate (L-ABH), was injected intravenously at a dosage of 6 mg/kg at the day before laser, and at a dosage of 3 mg/kg at the third day after laser. At the seventh day after laser injury, stretched preparation was performed with choroid/retinal pigment epithelial cells (RPEs), which were stained with metaagglutinin GS-IB4 coupled with Alexa Fluor 594, and the volume of CNV was analyzed. And primary RPEs were utilized in vitro to study the inhibition of L-ABH on the production of VEGF and MCP-1 by RPEs which was induced with TNFα. Macrophages were co-cultured with RPEs to study L-ABH about pre-treating RPEs and inhibiting the migration of macrophages.
The results of inhibiting the laser-induced choroidal neovascularization by intravenously injecting L-ABH are shown in FIGS. 1A-1E, wherein FIG. 1A is CNV produced by laser in 2-month-old wild-type mice. Injection of saline was used as the control group (Con, B); at the day before laser, L-ABH was injected intravenously (2 mg/kg), and 1 mg/kg (C) was injected 3 days after laser; or at the day before laser, L-ABH was injected intravenously (6 mg/kg), and 3 mg/kg (D) was injected 3 days after laser. […]

[2] = tested on: retinal functions (B-wave of rod and cone cells); experiment: Electroretinographic analysis of retinal function after intravenous L-ABH; assay type: in vivo, C57BL/6J male mice; details: 6 mg/kg i.v., one day after injection, vs saline injection group
Description: The effect of intravenous injection of L-ABH on retinal functions is shown in FIGS. 2A-2D, in which C57BL/6J male mice were intravenously injected 6 mg/kg of L-ABH at an age of two months, one day after the injection, an electrographic analysis was performed on the retina. The amplitudes of B-wave in dark and bright views are shown in FIG. 2A, FIG. 2C, and FIG. 2B respectively, and the average values of which are analyzed by histograms in FIG. 2D.

[3] = tested on: visual functions; parameters: species or system C57BL/6j male mice; details: mouse, in vivo
Description: The effect of intravenous injection of L-ABH on visual functions are shown in FIGS. 3A-3C, in which C57BL/6j male mice were intravenously injected 6 mg/kg of L-ABH at an age of two months, one day after the injection, visual behaviors were analyzed.

[4] = tested on: primary RPEs; experiment: L-serine and D-serine in supernatants of primary RPE by HPLC; assay type: cell-based; details: L-ABH 0.0625-0.25 mM pre-treatment 1.5 h, then TNFα 500 unit/ml 12 h; supernatant
Description: Primary RPE was cultured in DMEM/F12 plus 20% FBS to a density of 70%, at which it was exchanged for DMEM/F12 plus 1% FBS, L-ABH (0.0625-0.25 mM), or after the control pre-treatment for 1.5 hours, it was exchanged for TNFα (500 unit/ml) to treat for 12 h, the supernatants were collected, and L-serine and D-serine in the supernatants were detected by high performance liquid chromatography. There were six samples in each group. The contents of L-serine and D-serine are shown with box charts in FIG. 4A, with **p<0.01, *p<0.05 showing that there was significant difference of D-serine between the treatment group and the control group. The ratio of L/D-serine was shown in FIG. 4B, with **p<0.01, *p<0.05 showing that there was significant difference between the control groups. In FIG. 4C-FIG. 4E, primary RPEs were co-cultured with macrophages J774A.1, primary RPEs were pretreated with L-ABH (0.125 mM) for 1.5 h, then treated with TNFα (500 unit/ml) for 12 h, with J774A.1 being cultured in the upper layer at the same time for 12 h, after which the supernatants cultured with RPEs were collected, and an enzyme-linked immunosorbent assay was used to detect the productions of MCP-1 (C), VEGF (D), and NO (E). (There were 7 samples for each group). In FIG. 4C, ***p<0.001, compared with the control group, **p<0.01, compared with TNFα treatment group. […]

[5] = tested on: primary RPEs induced with TNFα; experiment: Production of VEGF and MCP-1 by TNFα-induced primary RPE (ELISA, co-culture with J774A.1); assay type: cell-based; details: L-ABH 0.125 mM pre-treatment 1.5 h, then TNFα 500 unit/ml 12 h
Description: as §1
Primary RPE was cultured in DMEM/F12 plus 20% FBS to a density of 70%, at which it was exchanged for DMEM/F12 plus 1% FBS, L-ABH (0.0625-0.25 mM), or after the control pre-treatment for 1.5 hours, it was exchanged for TNFα (500 unit/ml) to treat for 12 h, the supernatants were collected, and L-serine and D-serine in the supernatants were detected by high performance liquid chromatography. There were six samples in each group. […]

[6] = tested on: macrophages J774A.1; experiment: Migration of macrophages J774A.1 co-cultured with TNFα-treated RPE; assay type: cell-based; details: L-ABH 0.125 mM pre-treatment of RPE 1.5 h, then TNFα 12 h; co-culture 12 h
Description: as §1
The results of L-ABH inhibiting the migration of macrophages under the induction of RPE treated with TNFα are shown in FIGS. 5A-5D, in which RPE was co-cultured with macrophages J774A.1 for 12 h. […] For each culture dish, nine visual fields were randomly selected under the light microscope to be counted, with the statistical analysis seen in FIG. 5D. **p<0.01, compared with the control group, # p<0.05, compared with TNFα treatment group.

amplitude of B-wave from cone cells in a bright view [2]: no differences | amplitude of B-wave from rod cells in a dark view [2]: no differences | retention time of mice in the black box [3]: no difference
Structure (SMILES): N[C@@H](CC(=O)NO)C(=O)O [L-ABH, L-aspartic acid β-hydroxamate]
volume of CNV relative to saline control group [1]: 55% | production of D-serine in primary RPEs [4]: decreased the production of D-serine | ratio of L-serine/D-serine [4]: increased the ratio of L-serine/D-serine | production of MCP-1 by RPE induced with TNFα [5]: significantly decreasing the production | production of VEGF by RPE induced with TNFα [5]: significantly decreasing the production | macrophage migration mediated with RPE induced with TNFα [6]: significantly inhibited macrophage migration

Reference: patent US20200261388A1, “USE AND METHOD OF L-ASPARTIC ACID beta-HYDROXAMATE IN PREPARING DRUGS FOR INHIBITING CHOROIDAL NEOVASCULARIZATION” (WENZHOU MEDICAL UNIVERSITY, priority 2019, published 2020)
